We go through 29 compounds from ChEMBL document CHEMBL4396865, “Current advances of triazole alcohols derived from fluconazole: Design, in vitro and in silico studies” (2019).

For orientation: MIC80 means an inhibitory concentration at the 80% level, which refers to growth in some studies and to a panel of isolates in others. Higher therefore signals lower susceptibility. Broadly, the MIC is the lowest concentration that inhibits growth of the organism. A low value points to greater potency.

Format in all cases: functional
Assay [1] concerns Cryptococcus neoformans. Briefly: Antifungal activity against Cryptococcus neoformans after 72 hrs by NCCLS protocol based method.
The subject of assay [2] is Trichophyton rubrum. The assay is described as follows: Antifungal activity against Trichophyton rubrum after 7 days by NCCLS protocol based method. To be noted: 168 h.
In assay [3] the test system is Candida albicans. The assay is described as follows: Antifungal activity against Candida albicans after 24 hrs by NCCLS protocol based method.
The test system of assay [4] is Candida parapsilosis. The assay is described as follows: Antifungal activity against Candida parapsilosis after 24 hrs by NCCLS protocol based method. To be noted: Lodderomyces parapsilosis.
The test system of assay [5] is Candida tropicalis. The assay is described as follows: Antifungal activity against Candida tropicalis after 24 hrs by NCCLS protocol based method.
The next assay has as its system Fonsecaea compacta. Briefly: Antifungal activity against Fonsecaea compacta after 24 hrs by NCCLS protocol based method.
Assay [6] deals with Candida parapsilosis. The assay is described as follows: Antifungal activity against Candida parapsilosis.
Assay [7] relates to Candida albicans. Briefly: Antifungal activity against Candida albicans.
For another assay, the system named is Kluyveromyces marxianus. The assay is described as follows: Antifungal activity against Candida kefyr.
Assay [8] relates to Candida tropicalis. The assay is described as follows: Antifungal activity against Candida tropicalis.
Assay [9] has as its system Cryptococcus neoformans. The assay is described as follows: Antifungal activity against Cryptococcus neoformans.
Assay [10] has as its system Trichophyton rubrum. The assay is described as follows: Antifungal activity against Trichophyton rubrum.
In a further assay the test system is Aspergillus fumigatus. Briefly: Antifungal activity against Aspergillus fumigatus.

The structures appear in SMILES notation. Values after ≈ are worked out from the molar mass of the structure shown.

With `O=C(OC1CCN(CC(O)(Cn2cncn2)c2ccc(F)cc2F)CC1)c1cccc([N+](=O)[O-])c1` (centres undefined), the MIC80 with Cryptococcus neoformans [1], against Trichophyton rubrum [2], against Candida albicans [3], in the assay on Candida parapsilosis [4], in the assay on Candida tropicalis [5] and in the assay with Fonsecaea compacta was 3.9 to 62.5 ng/mL (≈ 8 to 128 nM) throughout.
Turning to `Cc1ccc(C(=O)OC2CCN(CC(O)(Cn3cncn3)c3ccc(F)cc3F)CC2)cc1` (centres undefined), the MIC80 against Cryptococcus neoformans [1], against Trichophyton rubrum [2], in the assay with Candida albicans [3], in the assay on Candida parapsilosis [4], in the assay on Candida tropicalis [5] and in the assay on Fonsecaea compacta was 3.9 to 62.5 ng/mL (≈ 8.54 to 137 nM) throughout.
On to `CCc1ccc(C(=O)OC2CCN(CC(O)(Cn3cncn3)c3ccc(F)cc3F)CC2)cc1` (centres undefined), for which the MIC80 in the assay on Cryptococcus neoformans [1], in the assay with Trichophyton rubrum [2], with Candida albicans [3], against Candida parapsilosis [4], with Candida tropicalis [5] and in the assay on Fonsecaea compacta was 3.9 to 62.5 ng/mL (≈ 8.29 to 133 nM) in each case.
As to `Cc1ccc(C(=O)OC2CCN(CC(O)(Cn3cncn3)c3ccc(F)cc3F)CC2)cc1C` (centres undefined), the MIC80 against Cryptococcus neoformans [1], in the assay on Trichophyton rubrum [2], against Candida albicans [3], against Candida parapsilosis [4], against Candida tropicalis [5] and with Fonsecaea compacta was 3.9 to 62.5 ng/mL (≈ 8.29 to 133 nM) each time.
As to `C#CCN(Cc1cccc(C#N)c1)CC(O)(Cn1cncn1)c1ccc(F)cc1F` (centres undefined), the MIC in the assay on Candida parapsilosis [6], in the assay with Candida albicans [7], against Kluyveromyces marxianus, against Candida tropicalis [8], in the assay on Cryptococcus neoformans [9] and in the assay on Trichophyton rubrum [10] was 0.24 to 250 ng/mL throughout. In addition, the minimum inhibitory concentration (MIC) against Aspergillus fumigatus is 0.24 to 250 ng/mL.
As for `C#CCN(Cc1ccc(OC)cc1)CC(O)(Cn1cncn1)c1ccc(F)cc1F` (centres undefined), the MIC against Candida parapsilosis [6], with Candida albicans [7], in the assay on Kluyveromyces marxianus, with Candida tropicalis [8], against Cryptococcus neoformans [9] and against Trichophyton rubrum [10] was 0.24 to 250 ng/mL each time. For the same compound, in the assay with Aspergillus fumigatus, the MIC lay within 0.24 to 250 ng/mL.
Regarding `O=C(OC1CCN(CC(O)(Cn2cncn2)c2ccc(F)cc2F)CC1)c1ccc(F)cc1` (centres undefined), the MIC80 in the assay on Cryptococcus neoformans [1], against Trichophyton rubrum [2], in the assay with Candida albicans [3], with Candida parapsilosis [4], in the assay on Candida tropicalis [5] and in the assay with Fonsecaea compacta was 3.9 to 62.5 ng/mL (≈ 8.47 to 136 nM) each time.
As to `O=C(OC1CCN(CC(O)(Cn2cncn2)c2ccc(F)cc2F)CC1)c1cccc(F)c1` (centres undefined), the MIC80 in the assay on Cryptococcus neoformans [1], in the assay on Trichophyton rubrum [2], in the assay with Candida albicans [3], against Candida parapsilosis [4], in the assay with Candida tropicalis [5] and with Fonsecaea compacta was 3.9 to 62.5 ng/mL (≈ 8.47 to 136 nM) each time.
For `O=C(OC1CCN(CC(O)(Cn2cncn2)c2ccc(F)cc2F)CC1)c1ccc([N+](=O)[O-])cc1` (centres undefined), the MIC80 against Cryptococcus neoformans [1], with Trichophyton rubrum [2], in the assay on Candida albicans [3], against Candida parapsilosis [4], in the assay with Candida tropicalis [5] and against Fonsecaea compacta was 3.9 to 62.5 ng/mL (≈ 8 to 128 nM) each time.
On to `COc1ccc(C(=O)OC2CCN(CC(O)(Cn3cncn3)c3ccc(F)cc3F)CC2)cc1` (centres undefined), for which the MIC80 against Cryptococcus neoformans [1], against Trichophyton rubrum [2], in the assay with Candida albicans [3], in the assay on Candida parapsilosis [4], with Candida tropicalis [5] and with Fonsecaea compacta was 3.9 to 62.5 ng/mL (≈ 8.25 to 132 nM) in each case.
Turning to `O=C(OC1CCN(CC(O)(Cn2cncn2)c2ccc(F)cc2F)CC1)c1ccccc1Cl` (centres undefined), the MIC80 against Cryptococcus neoformans [1], in the assay with Trichophyton rubrum [2], with Candida albicans [3], against Candida parapsilosis [4], in the assay with Candida tropicalis [5] and against Fonsecaea compacta was 3.9 to 62.5 ng/mL (≈ 8.18 to 131 nM) throughout.
On to `O=C(OC1CCN(CC(O)(Cn2cncn2)c2ccc(F)cc2F)CC1)c1ccccc1[N+](=O)[O-]` (centres undefined), for which the MIC80 with Cryptococcus neoformans [1], against Trichophyton rubrum [2], in the assay with Candida albicans [3], with Candida parapsilosis [4], in the assay with Candida tropicalis [5] and with Fonsecaea compacta was 3.9 to 62.5 ng/mL (≈ 8 to 128 nM) throughout.
Regarding `O=C(OC1CCN(CC(O)(Cn2cncn2)c2ccc(F)cc2F)CC1)c1ccc(Cl)cc1Cl` (centres undefined), the MIC80 in the assay on Cryptococcus neoformans [1], in the assay on Trichophyton rubrum [2], with Candida albicans [3], in the assay with Candida parapsilosis [4], with Candida tropicalis [5] and in the assay with Fonsecaea compacta was 3.9 to 62.5 ng/mL (≈ 7.63 to 122 nM) each time.
On to `O=C(OC1CCN(CC(O)(Cn2cncn2)c2ccc(F)cc2F)CC1)c1ccccc1Br` (centres undefined), for which the MIC80 in the assay on Cryptococcus neoformans [1], with Trichophyton rubrum [2], in the assay on Candida albicans [3], against Candida parapsilosis [4], in the assay with Candida tropicalis [5] and in the assay on Fonsecaea compacta was 3.9 to 62.5 ng/mL (≈ 7.48 to 120 nM) in each case.
On to `COc1ccc(C(=O)OC2CCN(CC(O)(Cn3cncn3)c3ccc(F)cc3F)CC2)cc1OC` (centres undefined), for which the MIC80 against Cryptococcus neoformans [1], against Trichophyton rubrum [2], in the assay on Candida albicans [3], in the assay with Candida parapsilosis [4], against Candida tropicalis [5] and with Fonsecaea compacta was 3.9 to 62.5 ng/mL (≈ 7.76 to 124 nM) throughout.
Regarding `C#CCN(Cc1ccc(C#N)cc1)CC(O)(Cn1cncn1)c1ccc(F)cc1F` (centres undefined), the MIC in the assay with Candida parapsilosis [6], in the assay with Candida albicans [7], against Kluyveromyces marxianus, against Candida tropicalis [8], with Cryptococcus neoformans [9] and with Trichophyton rubrum [10] was 0.24 to 250 ng/mL in each case. This compound had an MIC against Aspergillus fumigatus of 0.24 to 250 ng/mL.
For `Cc1ccccc1C(=O)OC1CCN(CC(O)(Cn2cncn2)c2ccc(F)cc2F)CC1` (centres undefined), the MIC80 in the assay on Cryptococcus neoformans [1], with Trichophyton rubrum [2], in the assay with Candida albicans [3], in the assay on Candida parapsilosis [4], against Candida tropicalis [5] and against Fonsecaea compacta was 3.9 to 62.5 ng/mL (≈ 8.54 to 137 nM) each time.
Take `O=C(OC1CCN(CC(O)(Cn2cncn2)c2ccc(F)cc2F)CC1)c1ccccc1F` (centres undefined): the MIC80 against Cryptococcus neoformans [1], in the assay with Trichophyton rubrum [2], in the assay on Candida albicans [3], in the assay on Candida parapsilosis [4], with Candida tropicalis [5] and against Fonsecaea compacta was 3.9 to 62.5 ng/mL (≈ 8.47 to 136 nM) in each case.
With `Cc1cccc(C(=O)OC2CCN(CC(O)(Cn3cncn3)c3ccc(F)cc3F)CC2)c1` (centres undefined), the MIC80 with Cryptococcus neoformans [1], in the assay on Trichophyton rubrum [2], against Candida albicans [3], against Candida parapsilosis [4], against Candida tropicalis [5] and in the assay on Fonsecaea compacta was 3.9 to 62.5 ng/mL (≈ 8.54 to 137 nM) throughout.
`C#CCN(Cc1ccc(Cl)cc1Cl)CC(O)(Cn1cncn1)c1ccc(F)cc1F` (centres undefined): the MIC in the assay with Candida parapsilosis [6], in the assay on Candida albicans [7], against Kluyveromyces marxianus, against Candida tropicalis [8], with Cryptococcus neoformans [9] and in the assay on Trichophyton rubrum [10] was 0.24 to 250 ng/mL each time. Moreover, in the assay on Aspergillus fumigatus, the MIC is 0.24 to 250 ng/mL.
Take `C#CCN(Cc1c(Cl)cccc1Cl)CC(O)(Cn1cncn1)c1ccc(F)cc1F` (centres undefined): the MIC against Candida parapsilosis [6], against Candida albicans [7], against Kluyveromyces marxianus, in the assay on Candida tropicalis [8], against Cryptococcus neoformans [9] and against Trichophyton rubrum [10] was 0.24 to 250 ng/mL in each case. The compound also had an MIC against Aspergillus fumigatus of 0.24 to 250 ng/mL.
`COc1cccc(C(=O)OC2CCN(CC(O)(Cn3cncn3)c3ccc(F)cc3F)CC2)c1` (centres undefined): the MIC80 in the assay on Cryptococcus neoformans [1], in the assay with Trichophyton rubrum [2], in the assay on Candida albicans [3], against Candida parapsilosis [4], in the assay on Candida tropicalis [5] and with Fonsecaea compacta was 3.9 to 62.5 ng/mL (≈ 8.25 to 132 nM) in each case.
For the compound `O=C(OC1CCN(CC(O)(Cn2cncn2)c2ccc(F)cc2F)CC1)c1cccc(C(F)(F)F)c1` (centres undefined), the MIC80 against Cryptococcus neoformans [1], against Trichophyton rubrum [2], with Candida albicans [3], against Candida parapsilosis [4], with Candida tropicalis [5] and in the assay on Fonsecaea compacta was 3.9 to 62.5 ng/mL (≈ 7.64 to 122 nM) each time.
In the case of `O=C(OC1CCN(CC(O)(Cn2cncn2)c2ccc(F)cc2F)CC1)c1ccccc1I` (centres undefined), the MIC80 with Cryptococcus neoformans [1], against Trichophyton rubrum [2], against Candida albicans [3], against Candida parapsilosis [4], in the assay with Candida tropicalis [5] and in the assay with Fonsecaea compacta was 3.9 to 62.5 ng/mL (≈ 6.86 to 110 nM) each time.
With `O=C(OC1CCN(CC(O)(Cn2cncn2)c2ccc(F)cc2F)CC1)c1ccccc1` (centres undefined), the MIC80 in the assay with Cryptococcus neoformans [1], in the assay on Trichophyton rubrum [2], with Candida albicans [3], with Candida parapsilosis [4], in the assay with Candida tropicalis [5] and against Fonsecaea compacta was 3.9 to 62.5 ng/mL (≈ 8.81 to 141 nM) each time.
Turning to `Cc1ccc(C(=O)OC2CCN(CC(O)(Cn3cncn3)c3ccc(F)cc3F)CC2)c(C)c1` (centres undefined), the MIC80 in the assay with Cryptococcus neoformans [1], against Trichophyton rubrum [2], in the assay on Candida albicans [3], against Candida parapsilosis [4], against Candida tropicalis [5] and with Fonsecaea compacta was 3.9 to 62.5 ng/mL (≈ 8.29 to 133 nM) each time.
In the case of `O=C(OC1CCN(CC(O)(Cn2cncn2)c2ccc(F)cc2F)CC1)c1cccc(Cl)c1` (centres undefined), the MIC80 in the assay on Cryptococcus neoformans [1], against Trichophyton rubrum [2], against Candida albicans [3], against Candida parapsilosis [4], in the assay on Candida tropicalis [5] and in the assay on Fonsecaea compacta was 3.9 to 62.5 ng/mL (≈ 8.18 to 131 nM) each time.
In the case of `COc1ccccc1C(=O)OC1CCN(CC(O)(Cn2cncn2)c2ccc(F)cc2F)CC1` (centres undefined), the MIC80 in the assay with Cryptococcus neoformans [1], against Trichophyton rubrum [2], in the assay on Candida albicans [3], against Candida parapsilosis [4], in the assay on Candida tropicalis [5] and in the assay with Fonsecaea compacta was 3.9 to 62.5 ng/mL (≈ 8.25 to 132 nM) throughout.
As for `O=C(OC1CCN(CC(O)(Cn2cncn2)c2ccc(F)cc2F)CC1)c1ccc(Cl)cc1` (centres undefined), the MIC80 in the assay with Cryptococcus neoformans [1], against Trichophyton rubrum [2], against Candida albicans [3], against Candida parapsilosis [4], in the assay on Candida tropicalis [5] and against Fonsecaea compacta was 3.9 to 62.5 ng/mL (≈ 8.18 to 131 nM) throughout.
